Test results: patent publication US20130045991A1, “NEUROPROTECTIVE MODULATION OF NMDA RECEPTOR SUBTYPE ACTIVITIES” (THE UNIVERSITY OF BRITISH COLUMBIA, priority 2005, published 2013)

Assays:
Type in all cases: cell-based, rat
cortical cultures = test: Oxygen and glucose deprivation (OGD), in vitro stroke model; conditions: 1 h OGD; NVP-AAM077 0.4 μM or Ro 25-6981 0.5 μM; apoptosis 20 h after OGD
Source text: Taking advantage of the finding of the opposing roles of NR2A- and NR2B-containing NMDA receptors in mediating cell survival and death, one aspect of the invention involves modulating the activity of the two subpopulations of receptors to ameliorate neuronal injury following acute brain insults, such as stroke and brain trauma. To illustrate this aspect of the invention, we employed a well-characterized in vitro stroke model, oxygen and glucose deprivation (OGD) (Goldberg et al., 1993; Aarts et al., 2002). Cortical cultures of 11-14 DIV were exposed to an anaerobic atmosphere for 1 h in a glucose-free solution in the absence or the presence of either NVP-AAM077 (0.4 μM) or Ro 25-6981 (0.5 μM). Neuronal apoptosis was quantitatively determined 20 h after OGD.
To visualize injured neurons, Hoechst-33342 (10 μg/ml) was added to the culture medium 20 h after treatments and incubated for 45 min at 37 °C. Images were taken with a Leica DMIRE2 fluorescence microscope. Quantitative assessment of neuronal apoptosis was performed 20 h following treatments using a Cell Death Detection ELISAPLUS Kit (Roche Applied Science). Absorbance readings were determined using a spectrophotometric microplate reader. Data analyses were carried out according to the manufacturer's instructions. Data are expressed as the difference in apoptosis relative to control and are expressed as a percentage. […]

cortical neurons [1] = test: Neuronal apoptosis under basal, non-stimulated conditions; conditions: no bicuculline stimulation
Protocol: Under bicuculline incubation, the increased action potential-dependent synaptic release of glutamate may lead to activation of extrasynaptic NMDA receptors by glutamate spillover.
(§1) To visualize injured neurons, Hoechst-33342 (10 μg/ml) was added to the culture medium 20 h after treatments and incubated for 45 min at 37 °C. Images were taken with a Leica DMIRE2 fluorescence microscope. Quantitative assessment of neuronal apoptosis was performed 20 h following treatments using a Cell Death Detection […] Kit (Roche Applied Science). Absorbance readings were determined using a spectrophotometric microplate reader. Data analyses were carried out according to the manufacturer's instructions. Data are expressed as the difference in apoptosis relative to control and are expressed as a percentage.

cortical neurons [2] = test: NMDA-mediated excitotoxicity: neuronal apoptosis in cortical cultures; conditions: 50 μM NMDA plus 10 μM glycine 20 min, assayed 20 h after; APV 50 μM, Ro25-6981 0.5 μM, NVP-AAM077 0.4 μM
Protocol: (§2) Mature neurons (11-14 DIV) were used for experiments.
as §1

cortical neurons [3] = test: Glycine pretreatment before NMDA-induced neuronal apoptosis; conditions: co-applied with glycine; NVP-AAM077 0.4 μM, Ro25-6981 0.5 μM
Protocol: as §2, §1

cortical neurons [4] = test: Apoptosis by NMDA after blockade of synaptic NMDA receptors (extrasynaptic receptors); conditions: synaptic receptors blocked with MK-801 plus bicuculline; NMDA 50 μM plus 10 μM glycine 20 min; assayed 20 h after
Protocol: In accordance with various aspect of the invention, we have illustrated the role of extrasynaptic NR2A- and NR2B-containing receptors in mediating NMDA-induced cell survival and death. After a specific blockade of synaptic NMDA receptors and wash-out of bicuculline and MK-801, the neurons were treated with NMDA (50 μM plus 10 μM glycine) for 20 min in the absence or presence of NVP-AAM077 (0.4 μM) or Ro 25-6981 (0.5 μM). […] Thus, as with synaptic NMDA receptors, activation of extrasynaptic NR2A-containing receptors has a role in promoting cell survival, counteracting NR2B-containing receptor-mediated neuronal apoptosis. […]
(§3) To visualize injured neurons, Hoechst-33342 (10 μg/ml) was added to the culture medium 20 h after treatments and incubated for 45 min at 37 °C. Images were taken with a Leica DMIRE2 fluorescence microscope. Quantitative assessment of neuronal apoptosis was performed 20 h following treatments using a Cell Death Detection ELISAPLUS Kit (Roche Applied Science). Absorbance readings were determined using a spectrophotometric microplate reader. […] Data are expressed as the difference in apoptosis relative to control and are expressed as a percentage.

cortical neurons [5] = test: Staurosporine (STS)-induced neuronal apoptosis; conditions: co-application of NVP-AAM077 0.4 μM
Source text: In alternative aspects of the invention, we have achieved specific activation of NR2A-containing receptors using two different strategies. First, we examined the effect of selective activation of extrasynaptic NR2A-containing receptor activation on neuronal appopotosis induced by staurosporine (STS), a potent apoptosis inducer (Budd et al., 2000). […] The NMDA-induced neuronal protection was indeed mediated by NR2A-containing receptors as it was prevented by co-application of NVP-AAM077 (p<0.001 compared with STS alone).
Dissociated cultures of cortical neurons were prepared from 18-day Sprague-Dawley rat embryos as described previously (Mielke et al., 2005). To obtain mixed cortical cultures enriched with neurons, uridine (10 μM) and 5-Fluor-2′-deoxyuridine (10 μM) were added to the culture medium at 3 DIV and maintained for 48 h, to inhibit non-neuronal cell proliferation, before the cultures were shifted back to the normal culture medium. Mature neurons (11-14 DIV) were used for experiments. To induce neuronal apoptosis, cortical cultures were stimulated with NMDA (50 μM) and glycine (10 μM) for 20 min, or STS (100 nM) for 1 h in Mg2+-free extracellular solution (ECS) containing (mM): 25 HEPES acid, 140 NaCl, 33 glucose, 5.4 KCl and 1.3 CaCl2, with pH 7.35 and osmolarity 320-330 mOsm. […]
as §3

Row | Compound | effect on OGD-induced neuronal apoptosis (cortical cultures) | effect on NVP-AAM077 (48 h)-induced apoptosis (cortical neurons [1]) | neuronal apoptosis after incubation for 48 h (cortical neurons [1]) | effect on NMDA-induced neuronal apoptosis/damage (cortical neurons [2]) | effect on the neuroprotective effect of glycine pretreatment (cortical neurons [3]) | effect on apoptosis elicited by NMDA via extrasynaptic NMDA receptors (cortical neurons [4]) | neuronal apoptosis after incubation for 4 h (cortical neurons [1]) | effect on NMDA-induced protection against STS (cortical neurons [5])
1 | C[C@@H](CN1CCC(Cc2ccccc2)CC1)[C@@H](O)c1ccc(O)cc1 (relative stereo) [Ro 25-6981, [R-(R*,S*)]-α-(4-Hydroxyphenyl)-β-methyl-4-(phenylmethyl)-1-piperidinepropanol] | drastically reduced | prevented | did not increase neuronal apoptosis | prevented NMDA-induced neuronal apoptosis | not by affected | prevented | – | –
2 | C[C@H](NC(c1cccc2[nH]c(=O)c(=O)[nH]c12)P(=O)(O)O)c1ccc(Br)cc1 (stereo partly shown) [NVP-AAM077] | significantly enhanced OGD-induced neuronal apoptosis | – | significant increase in neuronal apoptosis | significantly enhanced | prevented | potentiated NMDA-mediated apoptosis | failed to increase neuronal apoptosis | prevented
